Key:
MDA-MB-435 = assay: in vitro breast cancer cell growth inhibition (NCI screen)
HOP-92 = assay: in vitro non-small cell lung cancer cell growth inhibition (NCI screen)
MDA-N = assay: in vitro breast cancer cell growth inhibition (NCI screen)
UACC-62 = assay: in vitro melanoma cell growth inhibition (NCI screen)
NCI-H460 = assay: in vitro non-small cell lung cancer cell growth inhibition (NCI screen)
SR = assay: in vitro leukemia cell growth inhibition (NCI screen)
SK-MEL-2 = assay: in vitro melanoma cell growth inhibition (NCI screen)
M14 = assay: as above
SK-MEL-5 = assay: as above
OVCAR-3 = assay: in vitro ovarian cancer cell growth inhibition (NCI screen)
UACC-257 = assay: in vitro melanoma cell growth inhibition (NCI screen)
MDA-MB-231/ATCC = assay: in vitro breast cancer cell growth inhibition (NCI screen)
LOX1MVI = assay: in vitro melanoma cell growth inhibition (NCI screen)
COLO-205 = assay: in vitro colon cancer cell growth inhibition (NCI screen)
MALME-3M = assay: in vitro melanoma cell growth inhibition (NCI screen)
HT 29 = assay: in vitro colon cancer cell growth inhibition (NCI screen)
NCI-H23 = assay: in vitro non-small cell lung cancer cell growth inhibition (NCI screen)
OVCAR-8 = assay: in vitro ovarian cancer cell growth inhibition (NCI screen)
MOLT-4 = assay: in vitro leukemia cell growth inhibition (NCI screen)
PC-3 = assay: in vitro prostate cancer cell growth inhibition (NCI screen)
HCT-15 = assay: in vitro colon cancer cell growth inhibition (NCI screen)
HCT-116 = assay: as above
MCF7/ADR-RES = assay: in vitro breast cancer cell growth inhibition (NCI screen)
NCI-H522 = assay: in vitro non-small cell lung cancer cell growth inhibition (NCI screen)
SW 620 = assay: in vitro colon cancer cell growth inhibition (NCI screen)
HCC-2998 = assay: as above
RXF-393 = assay: in vitro renal cancer cell growth inhibition (NCI screen)
CCRF-CEM = assay: in vitro leukemia cell growth inhibition (NCI screen)
IGROV1 = assay: in vitro ovarian cancer cell growth inhibition (NCI screen)
SK-OV-3 = assay: as above
MCF-7 = assay: in vitro breast cancer cell growth inhibition (NCI screen)
SF-539 = assay: in vitro CNS cancer cell growth inhibition (NCI screen)
HL-60(TB) = assay: in vitro leukemia cell growth inhibition (NCI screen)
BT-549 = assay: in vitro breast cancer cell growth inhibition (NCI screen)
KM 20L2 = assay: in vitro colon cancer cell growth inhibition (NCI screen)
M19-MEL = assay: in vitro melanoma cell growth inhibition (NCI screen)
human tumor cell lines = format: cell-based
RPMI-8226 = assay: in vitro leukemia cell growth inhibition (NCI screen)
OVCAR-4 = assay: in vitro ovarian cancer cell growth inhibition (NCI screen); conditions: OVACR-4
T-47D = assay: in vitro breast cancer cell growth inhibition (NCI screen)
K-562 = assay: in vitro leukemia cell growth inhibition (NCI screen)
TK-10 = assay: in vitro renal cancer cell growth inhibition (NCI screen)
UO-31 = assay: as above

SMILES	cytotoxicity log GI50 (MDA-MB-435)	cytotoxicity log GI50 (MDA-N)	cytotoxicity log GI50 (UACC-62)	cytotoxicity log GI50 (NCI-H460)	cytotoxicity log GI50 (SK-MEL-2)	cytotoxicity log GI50 (M14)	cytotoxicity log GI50 (SK-MEL-5)	cytotoxicity log GI50 (OVCAR-3)	cytotoxicity log GI50 (UACC-257)	cytotoxicity log GI50 (COLO-205)	cytotoxicity log GI50 (MALME-3M)	cytotoxicity log GI50 (HT 29)	cytotoxicity log GI50 (NCI-H23)	cytotoxicity log GI50 (MOLT-4)	cytotoxicity log GI50 (HCT-15)	cytotoxicity log GI50 (HCT-116)	cytotoxicity log GI50 (MCF7/ADR-RES)	cytotoxicity log GI50 (NCI-H522)	cytotoxicity log GI50 (SW 620)	cytotoxicity log GI50 (HCC-2998)	other results
COC(=O)CCC(=O)NC1=C(Nc2ccc(OC)cc2)C(=O)c2ccccc2C1=O [Compound 56]	-5.69 M	-5.74 M	-5.67 M	-5.18 M	-5.31 M	-5.22 M	-5.75 M	-5.48 M	-5.37 M												cytotoxicity log GI50 (HOP-92): -5.66 M; cytotoxicity log GI50 (SR): -5.16 M; cytotoxicity log GI50 (MDA-MB-231/ATCC): -4.63 M; cytotoxicity log GI50 (LOX1MVI): -5.41 M
CCNC1=C(NC(=O)c2ccc(F)cc2)C(=O)c2ccccc2C1=O [Compound 48]	-4.74 M	-4.47 M	-4.82 M			-4.61 M	-4.46 M	-4.44 M	-4.80 M	-4.58 M	-4.72 M	-4.65 M	-4.46 M	-4.52 M	-4.51 M	-4.52 M	-4.56 M	-4.68 M	-4.49 M	-4.46 M	cytotoxicity log GI50 (OVCAR-8): -4.49 M; cytotoxicity log GI50 (PC-3): -4.76 M; cytotoxicity log GI50 (RXF-393): -4.53 M; cytotoxicity log GI50 (CCRF-CEM): -4.45 M; cytotoxicity log GI50 (IGROV1): -4.50 M; cytotoxicity log GI50 (SK-OV-3): -4.73 M; cytotoxicity log GI50 (MCF-7): -4.52 M
COC(=O)CCCC(=O)NC1=C(NCc2ccccc2)C(=O)c2ccccc2C1=O [Compound 51]	-4.37 M	-4.38 M	-4.53 M			-4.53 M		-4.64 M	-4.53 M	-4.62 M	-4.81 M			-4.47 M			-4.56 M			-4.49 M	cytotoxicity log GI50 (SF-539): -4.44 M; cytotoxicity log GI50 (HL-60(TB)): -4.54 M; cytotoxicity log GI50 (BT-549): -4.54 M; cytotoxicity log GI50 (CCRF-CEM): -4.44 M; cytotoxicity log GI50 (MCF-7): -4.52 M
CC(=O)NC1=C(NCCO)C(=O)c2ccccc2C1=O [Compound 40]							-4.53 M	-4.72 M			-4.89 M					-4.52 M		-4.61 M			cytotoxicity log GI50 (KM 20L2): -4.62 M; cytotoxicity log GI50 (HL-60(TB)): -4.68 M; cytotoxicity log GI50 (M19-MEL): -5.01 M
CCCc1nc2c(n1CC)C(=O)c1ccccc1C2=O [Compound 24]	-4.76 M	-4.70 M	-4.59 M				-4.53 M	-4.49 M	-4.74 M		-4.65 M	-4.73 M		-4.77 M	-4.55 M		-4.58 M	-4.62 M		-4.51 M	GI50 (human tumor cell lines; Homo sapiens, cancer cell panel, general / most cell lines, read-out: logGI50 values in the cancer cell line panel (converted)): ~10 µM; cytotoxicity log GI50 (RPMI-8226): -4.50 M; cytotoxicity log GI50 (OVCAR-4): -4.49 M; cytotoxicity log GI50 (T-47D): -4.55 M; cytotoxicity log GI50 (K-562): -4.51 M; cytotoxicity log GI50 (CCRF-CEM): -4.61 M; cytotoxicity log GI50 (IGROV1): -4.57 M; cytotoxicity log GI50 (SK-OV-3): -4.66 M
Cc1nc2c(n1CCN(C)C)C(=O)c1ccccc1C2=O [Compound 15]			-4.92 M	-5.01 M	-4.91 M	-4.93 M	-5.13 M	-5.15 M		-5.35 M	-5.55 M	-4.98 M	-4.92 M		-4.89 M			-5.27 M			cytotoxicity against tumor cells (in words) (human tumor cell lines; cancer cell line panel): comparable to those of compounds 6-14; cytotoxicity log GI50 (KM 20L2): -5.20 M; cytotoxicity log GI50 (HL-60(TB)): -5.28 M; cytotoxicity log GI50 (SR): -4.93 M; cytotoxicity log GI50 (M19-MEL): -5.69 M
O=C(O)CCc1nc2c(n1Cc1ccccc1)C(=O)c1ccccc1C2=O [Compound 61]	-4.72 M	-4.67 M	-4.42 M	-4.42 M	-4.59 M	-4.67 M	-4.67 M	-4.55 M	-4.47 M	-4.47 M			-4.52 M			-4.44 M		-4.62 M	-4.50 M		cytotoxicity log GI50 (TK-10): -4.47 M; cytotoxicity log GI50 (UO-31): -4.51 M; cytotoxicity log GI50 (HOP-92): -5.26 M; cytotoxicity log GI50 (SF-539): -4.55 M; cytotoxicity log GI50 (RXF-393): -4.60 M; cytotoxicity log GI50 (MDA-MB-231/ATCC): -4.47 M; cytotoxicity log GI50 (LOX1MVI): -4.57 M
CCNC1=C(NC(=O)c2ccc(OC)cc2)C(=O)c2ccccc2C1=O [Compound 49]	-4.77 M	-4.43 M	-4.40 M			-4.67 M	-4.46 M	-4.62 M	-4.71 M	-4.43 M	-4.67 M	-4.63 M	-4.36 M	-4.44 M		-4.44 M	-4.54 M	-4.51 M	-4.36 M	-4.43 M	cytotoxicity log GI50 (OVCAR-4): -4.46 M; cytotoxicity log GI50 (OVCAR-8): -4.61 M; cytotoxicity log GI50 (PC-3): -4.48 M; cytotoxicity log GI50 (RXF-393): -4.55 M
